Here are results for 48 molecules from the Deep4Chem optical property database.

The data set is described as follows: solvent given as SMILES.

Take `COc1cc(N(c2ccccc2)c2ccc(C=C(C#N)C#N)c(OC)c2)ccc1C=C(C#N)C#N`: the fluorescence lifetime runs as follows: (in C1COCCO1) 0.925 ns; (in CC#N) 0.026 ns; (in CC(C)=O) 0.049 ns; (in CCOC(C)=O) 0.22 ns; (in CN(C)C=O) 0.23 ns; (in CO) 0.11 ns. Besides, the fluorescence lifetime by setting is: (in Cc1ccccc1) 0.051 ns; (in ClC(Cl)Cl) 0.23 ns; (in ClCCl) 0.15 ns.

With `CCCCCCCCOc1cc(/C=C/c2cc(OCCCCCCCC)c(/C=C/c3cc(OCCCCCCCC)c(/C=C/c4ccncc4)cc3OCCCCCCCC)cc2OCCCCCCCC)c(OCCCCCCCC)cc1/C=C/c1ccncc1`, where the note is “in ClCCl”, the fluorescence lifetime was 1.27 ns.

Where the note is “in C1CCOC1”, `C(=C\c1cc2ccccc2c2ccccc12)/c1cc2ccccc2c2ccccc12` gave a fluorescence lifetime of 1.72 ns.

Molecule `Cc1ccc(O)c(-c2nc(C)c3n2CCCC3)c1` yielded a fluorescence lifetime (in ClCCl) of 2.3 ns.

For `Cc1ccc(C2=Cc3c4ccccc4c4ccccc4[n+]3[B-](F)(F)O2)cc1`, where the note is “in ClC(Cl)Cl”, the fluorescence lifetime came out at 0.706 ns.

`Cc1cc(C)c(B(c2c(C)cc(C)cc2C)c2cc3cc(N(C)C)c4ccccc4c3c3c2ccc2ccccc23)c(C)c1` showed a fluorescence lifetime (in C1CCCCC1) of 7 ns.

With `COc1ccc(C#Cc2ccc(C#Cc3ccc(P(=O)(c4ccc(C#Cc5ccc(C#Cc6ccc(OC)cc6)cc5)cc4)c4ccc(C#Cc5ccc(C#Cc6ccc(OC)cc6)cc5)cc4)cc3)cc2)cc1`, the fluorescence lifetime by setting is: (in C1CCCCC1) 0.58 ns; (in C1COCCO1) 0.69 ns; (in CC#N) 1.14 ns; (in CCO) 1.02 ns; (in CS(C)=O) 1.24 ns; (in ClC(Cl)Cl) 0.74 ns. In addition, the fluorescence lifetime (in ClCCl) turned out to be 0.85 ns.

Take `O=C1c2ccc(-c3ccc(N(c4ccccc4)c4ccccc4)cc3)cc2C(=O)c2ccc(-c3ccc(N(c4ccccc4)c4ccccc4)cc3)cc21`: the fluorescence lifetime was 9 ns (in Cc1ccccc1) and 10.2 ns (in c1ccc2c(c1)c1ccccc1n2-c1ccc(-c2ccc(-n3c4ccccc4c4ccccc43)cc2)cc1).

`O=P1(c2ccccc2)C(c2ccccc2)=Cc2cc3ccccc3cc21` (stereo not given): the fluorescence lifetime (in ClCCl) is 3.5 ns.

As for `Cc1ccc(C2=C3C=CC(/C=C/c4ccccc4)=[N+]3[B-](F)(F)n3c(Cl)ccc32)cc1`, the fluorescence lifetime (in C1CCCCC1) turned out to be 3.64 ns; the fluorescence lifetime (in C1CCOC1) came out at 3.45 ns; the fluorescence lifetime (in C1COCCO1) was determined as 3.68 ns; the fluorescence lifetime (in CCOC(C)=O) amounted to 3.43 ns; the fluorescence lifetime (in CO) worked out at 3.16 ns; the fluorescence lifetime (in Cc1ccccc1) came to 3.68 ns. For the same molecule, the fluorescence lifetime (in ClC(Cl)Cl) was 3.98 ns.

Take `Cn1c2ccc(S(=O)(=O)Cl)cc2c(=O)c2cc(S(=O)(=O)Cl)ccc21`: the fluorescence lifetime (in CS(C)=O) came to 10.6 ns.

`Clc1nc(Cl)nc(Nc2cc3ccc4cccc5ccc(c2)c3c45)n1`: the fluorescence lifetime (in CCCCCCC) worked out at 122 ns.

In turn, `CC(C)(C)c1cc2cc(N(c3ccccc3)c3ccccc3)c3cc(C(C)(C)C)cc4cc(N(c5ccccc5)c5ccccc5)c(c1)c2c43` yielded a fluorescence lifetime (in CCCCCC) of 4.6 ns.

On to `c1cc2c([nH]c3c4[nH]c5sccc5c4c4nsnc4c23)s1`, for which the fluorescence lifetime runs as follows: (in C1CCOC1) 16.2 ns; (in CCOC(C)=O) 16.5 ns; (in CN(C)C=O) 16 ns; (in Cc1ccccc1) 13.8 ns; (in ClCCl) 13.2 ns.

For `c1ccc2cc(-n3cnc4ccccc43)ccc2c1`, the fluorescence lifetime runs as follows: (in C1CCCCC1) 4.7 ns; (in CCOC(C)=O) 4.1 ns; (in CO) 5.1 ns.

`CCN(CC)c1ccc2c(-c3ccccc3C(=O)O)c3c([o+]c2c1)/C(=C/c1nc(C)n2ccccc12)CCC3` yielded a fluorescence lifetime (in ClCCl) of 2.21 ns.

Turning to `CC1=CC(C)=[N+]2C1=Cc1cccn1[B-]2(F)F`, the fluorescence lifetime is, setting by setting: (in CCCCCC) 6.21 ns; (in CO) 6.34 ns; (in ClCCl) 5.89 ns.

Under “in ClCCl”, `CCCCC(CC)COc1ccc2nc(-c3ccc(-c4ccccc4)s3)sc2c1` (stereo not given) gave a fluorescence lifetime of 1.14 ns.

As for `CCCCC(CC)CN1C(=O)C2=C(c3ccc(-c4ccc(C5=C6C(C)=CC(C)=[N+]6[B-](F)(F)n6c(C)cc(C)c65)cc4)s3)N(CC(CC)CCCC)C(=O)C2=C1c1ccc(-c2ccc(C3=C4C(C)=CC(C)=[N+]4[B-](F)(F)n4c(C)cc(C)c43)cc2)s1` (stereo not given), the fluorescence lifetime (in Cc1ccccc1) came to 3.36 ns.

Consider `c1ccc2c(-c3cc(-c4nccs4)nc(-c4nccs4)c3)c3ccccc3cc2c1`, for which the fluorescence lifetime is, setting by setting: (in CC#N) 2.32 ns; (in CCCCCC) 3.31 ns; (in CO) 2.5 ns; (in ClC(Cl)Cl) 2.34 ns.

With `Cc1cc(C)c(C2=C3C=CC=[N+]3[B-]3(F)Oc4cc(O)cc5c6ccc(C)cc6c6cc2n3c6c45)c(C)c1` (stereo not given), the fluorescence lifetime (in ClC(Cl)Cl) stood at 4 ns.

In turn, `CC[n+]1nc2cc3c4c(c2c2ccccc21)CCCN4CCC3` displayed a fluorescence lifetime (in O) of 3.6 ns.

With `c1ccc(-c2cc(-c3ccc4ccc5cccc6ccc3c4c56)ccn2)nc1`, the fluorescence lifetime reads like this: (in C1CCOC1) 6.5 ns; (in CC#N) 4.7 ns; (in CCC#N) 4.6 ns; (in CCCC#N) 5.5 ns; (in CCCCCC) 8.1 ns; (in CCCO) 3.5 ns. Besides, the fluorescence lifetime turned out to be 3.5 ns (in CCO), 3.1 ns (in CO) and 6 ns (in Cc1ccccc1).

On to `CC(C)(C)NC1=CC2=c3cc(NC(C)(C)C)c4nc(C(F)(F)C(F)(F)C(F)(F)F)nc5c(NC(C)(C)C)cc(c3c54)C3=CC(NC(C)(C)C)=C4N=C(C(F)(F)C(F)(F)C(F)(F)F)N=C1C4C32` (stereo not given), for which the fluorescence lifetime (in C1CCOC1) was 6.1 ns.

`c1ccc(-c2nc(-c3ccccc3)nc(-c3ccc(-n4c5ccccc5c5cc6c(cc54)C4c5ccccc5C6c5ccccc54)cc3)n2)cc1`: under “in O=P(c1ccccc1)(c1ccccc1)c1ccccc1Oc1ccccc1P(=O)(c1ccccc1)c1ccccc1”, the fluorescence lifetime came to 9 ns.

Regarding `COc1cc(OC)c2c(c1)C(=O)c1ccc(OC)cc1-2`, the fluorescence lifetime is, setting by setting: (in C1CCCCC1) 4.4 ns; (in CC#N) 1.2 ns.

As to `O=C1c2ccccc2C(=O)C1C1C(=O)c2c3ccccc3cc3cc4ccccc4c1c23` (stereo not given), the fluorescence lifetime runs as follows: (in C1CCOC1) 13.5 ns; (in CC#N) 8.4 ns; (in CCCCCC) 12.9 ns; (in Cc1ccccc1) 14.1 ns; (in ClCCl) 11 ns.

`CCNc1ccc2c(c1)C(C)(C)C(=O)C=C2` had a fluorescence lifetime (in O) of 3.9 ns.

Consider `CC(C)c1cc(C(C)C)c(B2c3cc(N4c5ccccc5C(C)(C)c5ccccc54)ccc3N(c3ccccc3)c3ccc(N4c5ccccc5C(C)(C)c5ccccc54)cc32)c(C(C)C)c1`, for which the fluorescence lifetime (in c1cc(-c2cccc(-n3c4ccccc4c4ccccc43)c2)cc(-n2c3ccccc3c3ccccc32)c1) is 17 ns.

In turn, `Cn1ccc(-n2cncn2)nc1=O` displayed a fluorescence lifetime (in O) of 3.43 ns.

`COc1ccc(N(c2ccc(OC)cc2)c2ccc(-c3ccc(-c4ccc(-c5cccs5)c5nsnc45)s3)cc2)cc1` had a fluorescence lifetime (in ClC(Cl)Cl) of 6.55 ns.

For the molecule `Fc1c(F)c(-n2c3ccccc3c3ccccc32)c(F)c(F)c1-c1nnc(-c2ccccc2)o1`, the fluorescence lifetime (in Cc1ccccc1) was determined as 6.7 ns.

`CC(C)(C)c1cc(-c2cc3c(cc(-c4cc(C(C)(C)C)cc(C(C)(C)C)c4)n3-c3ccc(C(=C(c4ccccc4)c4ccccc4)c4ccccc4)cc3)n2-c2ccc(C(=C(c3ccccc3)c3ccccc3)c3ccccc3)cc2)cc(C(C)(C)C)c1`: the fluorescence lifetime (in ClCCl) was determined as 1.6 ns.

As to `CCCCCCn1c2cc(/C=C(\C#N)c3ccccc3)ccc2c2ccc(/C=C(\C#N)c3ccccc3)cc21`, the fluorescence lifetime (in ClC(Cl)Cl) is 0.58 ns.

For `C1=Cc2nc1c(-c1cccs1)c1ccc([nH]1)c(-c1cccs1)c1nc(c(-c3cccs3)c3ccc([nH]3)c2-c2cccs2)C=C1`, the fluorescence lifetime is, setting by setting: (in CN(C)C=O) 2.09 ns; (in ClCCl) 9.27 ns.

For the molecule `CC1=[N+]2C(=C(Oc3ccc4c(c3)CC[C@@H]3[C@@H]4CC[C@]4(C)C(=O)CC[C@@H]34)c3ccc(C)n3[B-]2(F)F)C=C1c1cc2n(c1)[B-](F)(F)[N+]1=CC=CC1=C2c1c(C)cc(C)cc1C`, the fluorescence lifetime stood at 2.7 ns (in C1CCCCC1) and 0.911 ns (in CCOC(C)=O).

For the molecule `CN(C)c1ccc(/C=C/c2ccc(-c3nnc(-c4ccc(-c5cc6ccccc6s5)cc4)o3)cc2)cc1`, the fluorescence lifetime reads like this: (in Cc1ccccc1) 0.52 ns; (in ClC(Cl)Cl) 0.53 ns.

Regarding `CCN(CC)c1ccc2c(c1)oc(=O)c1cc3cnn(-c4ccccc4)c3nc12`, the fluorescence lifetime (in ClCCl) turned out to be 16.9 ns.

The molecule `Oc1ccccc1-c1nc2c(c3c1-c1ccccc1CC3)-c1ccccc1CC2` registered a fluorescence lifetime (in ClCCl) of 2.75 ns.

On to `CSc1ccc2c(c1)N(CCCN(C)C)c1ccccc1S2`, for which the fluorescence lifetime runs as follows: (in CC#N) 1.16 ns; (in CO) 1.15 ns; (in O) 1.17 ns.

As for `N#Cc1ccc(N(c2ccccc2)c2ccc3ccc4c(N(c5ccccc5)c5ccc(C#N)cc5)ccc5ccc2c3c54)cc1`, the fluorescence lifetime (in ClCCl) came to 2.7 ns.

The molecule `c1ccc2[nH]ccc2c1` gave a fluorescence lifetime (in O) of 4.49 ns.

As to `CN(C)c1ccc(C2=Nc3sc4cc(F)ccc4[n+]3[B-](F)(F)O2)cc1`, the fluorescence lifetime (in Cc1ccccc1) turned out to be 1.68 ns.

On to `COc1ccc(C#Cc2ccc(C#Cc3ccc(P(=O)(c4ccccc4)c4ccccc4)cc3)cc2)cc1`, for which the fluorescence lifetime (in C1CCCCC1) stood at 0.63 ns; the fluorescence lifetime (in C1COCCO1) stood at 0.73 ns; the fluorescence lifetime (in CC#N) turned out to be 1.13 ns; the fluorescence lifetime (in CCO) is 1.03 ns; the fluorescence lifetime (in CS(C)=O) was found to be 1.17 ns; the fluorescence lifetime (in ClC(Cl)Cl) came out at 0.78 ns. This molecule also returned a fluorescence lifetime (in ClCCl) of 0.87 ns.

For `CCN(CC)c1ccc2c(c1)oc(=O)c1cc3c(-c4ccccc4)nn(-c4ccccc4)c3nc12`, the fluorescence lifetime (in ClCCl) turned out to be 17.9 ns.

For the molecule `CC(C)(C)c1ccc2c(c1)c1cc(C(C)(C)C)ccc1n2-c1ccc(-n2c3ccc(C(C)(C)C)cc3c3cc(C(C)(C)C)ccc32)c(-c2nccnc2C#N)c1`, the fluorescence lifetime (in c1cc(-n2c3ccccc3c3ccccc32)cc(-n2c3ccccc3c3ccccc32)c1) was 7.2 ns.

Take `COCc1ncc(-c2c3ccccc3c(-c3cnc(COC)nc3)c3ccccc23)cn1`: the fluorescence lifetime is, setting by setting: (in CCO) 6.1 ns; (in ClCCl) 6.5 ns.

`CCCCOc1ccc(-c2oc3c(-c4ccc(OCCCC)cc4)c4n(c3c2-c2ccc(OCCCC)cc2)[B-](F)(F)[N+]2=Cc3c(-c5ccc(OCCCC)cc5)c5oc(-c6ccc(OCCCC)cc6)c(-c6ccc(OCCCC)cc6)c5n3[B-](F)(F)[N+]2=C4)cc1` registered a fluorescence lifetime (in ClCCl) of 2.56 ns.
